pEC50: −log10 of the molar value.
Legend:
[1] = test system: LACV; assay: MPID-NGS mutation rate of LACV in cell culture; assay type: cell-based, La Crosse virus; details: Vero cells; RBV, FAV: increase only at 100 μM; NHC also in hNSCs and N2a
Experimental: (§1) Cells were seeded in 24-well plates (1 × 10^5 cells/well) and infected with LACV (0.1 MOI). At 1 hour post infection (hpi), medium was replaced with fresh medium containing 6 different concentrations for each of the drugs. RBV and FAV were tested at concentrations of 1, 3, 10, 30, 100, and 300 μM, while NHC was tested at concentrations of 0.1, 0.3, 1, 3, 10 and 30 μM. DMSO was used as vehicle control. At 24 hpi, the cell supernatant was harvested, centrifuged to eliminate cell debris and stored at −80 °C for sequencing (described below) and plaque assay following the method of Ojha et al. 2021 [32]. Quantified virus titers were plotted to represent antiviral efficacy. The EC50 (50% effective concentration representing a 50% reduction in virus titer) was determined by extrapolating a dose-response curve using GraphPad Prism 8 and 9.
We used a Primer ID (PID) library preparation approach with Illumina MiSeq next-generation sequencing (NGS) to examine the mutagenic effects of these drugs on viral RNA allowing deep coverage of the viral population while maintaining a low method error rate (1 in 10,000 nucleotides). We designed cDNA primers targeting a 372 bp region of the RdRp gene within the L segment (referred as L7 in the study), and included a second amplicon covering a 455 bp portion of the M segment (referred as M4 in the study). Each cDNA primer included a block of random nucleotides (11 bases long) as the Primer ID/unique molecular identifier (UMI). […] After gel purification/extraction of the PCR product (Qiagen MinElute Gel Extraction kit), the extracted libraries were quantified using a Qubit fluorimeter and subjected to Agilent TapeStation analysis. For each sequencing run, 24 quantified libraries were pooled for MiSeq 300 base paired-end sequencing at the UNC High Throughput Sequencing Facility. […] Each type of substitution rate was calculated against the wildtype sequence at the sequenced regions. The sequencing date were submitted to the National Center for Biotechnology Information (NCBI) Sequence Read Archive (SRA), accession number is PRJNA1092655.

[2] = test system: LACV; assay: Antiviral efficacy against LACV in hNSCs, virus titer by plaque assay; assay type: cell-based; details: La Crosse virus, LACV 0.1 MOI, 24 hpi, read-out: EC50 (50% reduction in virus titer)
Experimental: as §1

[3] = test system: LACV; assay: Antiviral efficacy against LACV in N2a cells, virus titer by plaque assay; assay type: cell-based; details: La Crosse virus, LACV 0.1 MOI, 24 hpi, read-out: EC50 (50% reduction in virus titer)
Experimental: as §1

[4] = in vitro; assay type: cell-based; details: MTT, 24h
Experimental: Method: Cells were seeded in 96-well plates (1-2x10^4 cells/well) after attachment different concentrations of each drug containing fresh media were added to each well, in triplicate. DMSO was used as a control. At 24h post-treatment, MTT assays were carried out according to the manufacturer’s instructions (Invitrogen, ThermoFisher Scientific). The absorbance was measured using the Synergy 4 cell plate reader (BioTek) at 540 nm. This assay was used to estimate the drug-induced cytotoxicity using the following formula: (sample absorbance/DMSO absorbance) × 100%. The CC50 (50% cytotoxic concentration) was determined by extrapolating the dose–response curve.

[5] = test system: LACV; assay: Antiviral efficacy against LACV in Vero cells, virus titer by plaque assay; assay type: cell-based; details: La Crosse virus, LACV 0.1 MOI, 24 hpi, read-out: EC50 (50% reduction in virus titer)
Experimental: as §1

[6] = test system: Jamestown Canyon (JCV); assay: Antiviral efficacy against Jamestown Canyon virus in Vero cells, plaque assay; assay type: cell-based; details: 24 hpi, read-out: EC50 infectious virus production
Experimental: as §1
(§2) We also evaluated the ability of NHC to inhibit the replication of two other orthobunyaviruses, Cache Valley virus (CVV) and Jamestown Canyon (JCV). JCV belongs to the same serogroup as LACV but causes neurological disease in both children and adults. CVV is a member of the Bunyamwera serogroup and is the most common orthobunyavirus in the United States. Infections were done following the same protocol as for Fig 1. […] Thus, NHC inhibited virus replication for multiple orthobunyaviruses in different serogroups with similar potency.

[7] = test system: LACV; assay: Serial passage of LACV in presence of NHC in Vero cells (resistance selection); assay type: cell-based, La Crosse virus; details: for pEC50: La Crosse virus, Vero cells
Experimental: as §1
We used a digital scanner to scan the plaque assay plates. Digitized images were imported into FIJI/ImageJ v1.52n, and pixel calibration values were calculated based on the well diameter and corresponding digitized image. To quantify plaque size (surface area), wells with clearly isolated plaques were selected for segmentation and analysis. The image lookup table for each well was inverted followed by binarization prior to analysis, with a minimum area of 0.39 mm^2 to eliminate false positives due to slight variations in crystal violet staining. The measurements were imported into Microsoft Excel for data compilation, and graphed and analyzed using GraphPad Prism v9.3.1. Analysis of plaque size was done only when the plaque assays for different virus samples were done in parallel.
Vero cells were seeded at 5×10^5 cells/well in a 6-well plate for each passage. For the first passage, Vero cells were infected with LACV at MOIs of 10, 0.1, and 0.001 in 3 ml of medium, and treated with 0.1 μM of NHC or DMSO vehicle control. After 3 dpi, the virus inoculum was harvested from wells where more than 25% of cells were still attached to the well (using light microscopy). The harvested supernatants were centrifuged to clarify dead cells and then used to reinfect Vero cells at dilutions of 1:1,000, 1:100,000, and 1:10,000,000 and treated with 0.1 μM NHC for the first series of 5 passages where at each passage the culture with the highest dilution of virus that still gave rise to incomplete CPE (i.e. 25% of the cells still attached) was saved for the next passage. Second, third, and fourth series of 5 passages were treated with 0.2, 0.4 and 0.8 μM of NHC, respectively. After 20 passages in total, virus suspensions were collected, centrifuged, and frozen at −80°C to perform dose-dependent antiviral activity and plaque assays for virus titers (as described above).

[8] = test system: Cache Valley virus (CVV); assay: Antiviral efficacy against Cache Valley virus in Vero cells, plaque assay; assay type: cell-based; details: 24 hpi, read-out: EC50 infectious virus production
Experimental: as §1, §2

[9] = African green monkey, Vero cells

Row | SMILES | mutation rate of LACV grown in presence of drug [1] | pEC50 [2] | pEC50 [3] | CC50 [4, 9] | CC50 ([4]; human, hNSCs) | pEC50 [5] | pEC50 [6] | pEC50 ([7]; after 20 passages with 0.1 to 0.8 μM NHC, read-out: EC50 against NHC-selected LACV) | pEC50 ([7]; after 20 passages, read-out: EC50 against control (DMSO) passaged LACV) | supernatant virus titer at end of selection lower than control passaged virus ([7]; passage 20) | average plaque size of virus passaged with NHC vs DMSO control ([7]; passage 20 virus stocks) | pEC50 [8]
1 | NC(=O)c1ncn([C@@H]2O[C@H](CO)[C@@H](O)[C@H]2O)n1 [RBV, ribavirin] | did not see a significant increase in mutation rates | 4.56 | 5.42 | 1780 µM | 1260 µM | 4.37 |  |  |  |  |  | 
2 | O=c1nc(NO)ccn1[C@@H]1O[C@H](CO)[C@@H](O)[C@H]1O [NHC, N^4-hydroxycytidine] | dose-dependent relationship | 5.92 | 5.82 | 203 µM | 132 µM | 6.24 | 6.52 | 6.31 | 6.30 | approximately 15 fold | significantly smaller | 6.60
